Experimental data: ChEMBL document CHEMBL1133794, “3-p-Toluoyl-2-[4'-(3-diethylaminopropoxy)-phenyl]-benzofuran and 2-[4'-(3-diethylaminopropoxy)-phenyl]-benzofuran do not act as surfactants or micelles when inhibiting the aggregation of beta-amyloid peptide” (Bioorg Med Chem Lett, 2001)

Assays:
[1] = Inhibitory concentration required to inhibit aggregation of 50 uM beta-amyloid 1-40 peptide by 50% over 24 hr r incubation, 37 degree C; format: functional
[2] = Critical micelle concentration determined by micellar/surfactant based mechanism; format: functional

IC50 [1] [µM] | Structure (SMILES) | Critical micelle concentration [2] [µM]
20 | CCN(CC)CCCOc1ccc(-c2oc3ccccc3c2C(=O)c2ccc(C)cc2)cc1 | 225
78 | CCN(CC)CCCOc1ccc(-c2cc3ccccc3o2)cc1 | 220
